# According to patent US10508120B2, “TYK2 inhibitors and uses thereof” (Nimbus Lakshmi, Inc., priority 2017, dated 2019):
# Biological target: human TYK2 (JH2domain-pseudokinase) (Homo sapiens (Human), UniProt P29597)
# Experiment: TYK2 JH2 Domain Binding Assay (KINOMEscan)
# Method in brief: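 Displacement of a DNA-tagged TYK2 JH2 fusion (human, aa G556–D888, HEK293 extract, <0.1 nM) from ligand-coated beads over 1 h at RT; binding buffer PBS/0.05% Tween 20/10 mM DTT/0.1% BSA.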
# Sequence of human TYK2 (JH2domain-pseudokinase) (P29597 556-888): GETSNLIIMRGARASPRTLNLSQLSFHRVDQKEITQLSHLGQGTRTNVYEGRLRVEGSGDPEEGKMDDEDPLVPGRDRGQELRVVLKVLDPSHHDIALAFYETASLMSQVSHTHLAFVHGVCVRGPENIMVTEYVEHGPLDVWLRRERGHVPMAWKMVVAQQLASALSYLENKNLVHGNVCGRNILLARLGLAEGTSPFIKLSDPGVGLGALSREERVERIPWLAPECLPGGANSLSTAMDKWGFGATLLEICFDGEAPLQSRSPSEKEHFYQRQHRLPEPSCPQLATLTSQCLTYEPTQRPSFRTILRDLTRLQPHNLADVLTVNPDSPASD
row,Structure (SMILES),Kd [nM]
1,CNc1cc(Nc2cccn([C@H]3CCC[C@@H](C#N)C3)c2=O)nc2c(C(=O)NC3CC3)cnn12 [I-1361],0.2 to 1
2,CNc1cc(-c2cn([C@H]3CCN(CCF)C3)c3ncccc23)nc2c(C(=O)NC3CC3)cnn12 [I-1363],0.2 to 1
3,"CNc1cc(-c2cn([C@@H]3CCN(CCF)C3)c3ncccc23)nc2c(C(=O)NC3CC3)cnn12 [I-1367, (R)—N-cyclopropyl-5-(1-(1-(2-fluoroethyl)pyrrolidin-3-yl)-1H-pyrrolo[2,3-b]pyridin-3-yl)-7-(methylamino)pyrazolo[1,5-a]pyrimidine-3-carboxamide]",< 0.2
4,CNc1cc(Nc2cccn(-c3cnn(C)c3F)c2=O)nc2c(C(=O)N[C@@H]3CC[C@H]3OC)cnn12 [I-1368],< 0.2
5,CNc1cc(Nc2cccn(C(C)C)c2=O)nc2c(C(=O)N[C@@H]3CC[C@]3(C)O)cnn12 [I-1370],1 to 10
6,CNc1cc(Nc2cccn(C(C)C)c2=O)nc2c(C(=O)N[C@H]3CC[C@@]3(C)O)cnn12 [I-1371],< 0.2
7,CNc1cc(Nc2cccn([C@H]3CCC[C@H]3O)c2=O)nc2c(C(=O)N[C@@H]3CC[C@H]3OC)cnn12 [I-1372],0.2 to 1
8,CNc1cc(Nc2cccn([C@H]3CCC[C@H](OC)C3)c2=O)nc2c(C(=O)N[C@H]3CC[C@@H]3OC)cnn12 [I-1375],1 to 10
9,CNc1cc(Nc2cccn([C@H]3CCCC[C@H]3OC)c2=O)nc2c(C(=O)N[C@@H]3CC[C@H]3OC)cnn12 [I-1376],> 10
10,CNc1cc(Nc2cccn([C@H]3CCN(CCF)C3)c2=O)nc2c(C(=O)N[C@@H]3CC[C@H]3OC)cnn12 [I-1380],< 0.2
11,CNc1cc(Nc2cccn([C@@H]3CCCN(CCF)C3)c2=O)nc2c(C(=O)N[C@@H]3CC[C@H]3OC)cnn12 [I-1383],1 to 10
12,CNc1cc(Nc2cccn([C@H]3CC[C@@H]3O)c2=O)nc2c(C(=O)N[C@@H]3CC[C@H]3OC)cnn12 [I-1384],0.2 to 1
13,CNc1cc(-c2cn(C(C)C)c3ncc(F)cc23)nc2c(C(=O)N[C@@H]3CC[C@@H]3O)cnn12 [I-1386],1 to 10
14,CNc1cc(Nc2cccn(C3CC(F)(F)C3)c2=O)nc2c(C(=O)N[C@H]3CC[C@@H]3O)cnn12 [I-1390],1 to 10
15,CNc1cc(Nc2cccn(C3CC(F)(F)C3)c2=O)nc2c(C(=O)N[C@@H]3CC[C@@H]3O)cnn12 [I-1391],< 0.2
16,CNc1cc(-c2cn(C(C)C)c3ncc(F)cc23)nc2c(C(=O)N[C@@H]3CC[C@H]3OC)cnn12 [I-1392],0.2 to 1
17,CNc1cc(Nc2cccn([C@@H]3CCC[C@@H]3O)c2=O)nc2c(C(=O)N[C@@H]3CC[C@H]3OC)cnn12 [I-1393],< 0.2
18,CNc1cc(Nc2cccn([C@@H]3CCC[C@@H]3O)c2=O)nc2c(C(=O)N[C@H]3CC[C@@H]3OC)cnn12 [I-1394],< 0.2
19,CNc1cc(Nc2cccn([C@H]3CCC[C@H](O)C3)c2=O)nc2c(C(=O)N[C@H]3CC[C@@H]3OC)cnn12 [I-1396],0.2 to 1
20,CNc1cc(Nc2cccn([C@@H]3C[C@H]3F)c2=O)nc2c(C(=O)NCC(C)(C)CO)cnn12 [I-1399],1 to 10
21,CNc1cc(Nc2cccn([C@@H]3C[C@H]3F)c2=O)nc2c(C(=O)N[C@H]3CC[C@@H]3O)cnn12 [I-1401],< 0.2
22,CNc1cc(Nc2cccn([C@@H]3C[C@H]3F)c2=O)nc2c(C(=O)N[C@@H]3CC[C@H]3O)cnn12 [I-1402],1 to 10
23,CNc1cc(Nc2cccn([C@@H]3C[C@H]3F)c2=O)nc2c(C(=O)N[C@@H]3CC[C@@H]3O)cnn12 [I-1403],0.2 to 1
24,CNc1cc(-c2cn(C3CCOCC3)c3ncccc23)nc2c(C(=O)N[C@H]3CC[C@@H]3O)cnn12 [I-1405],1 to 10
25,CNc1cc(Nc2cccn(C(C)C)c2=O)nc2c(C(=O)N[C@H]3COC[C@H]3O)cnn12 [I-1406],> 10
26,CNc1cc(Nc2cccn(-c3cccc(F)c3)c2=O)nc2c(C(=O)N[C@H]3COC[C@H]3O)cnn12 [I-1407],< 0.2
27,CNc1cc(-c2cn(C3CCOCC3)c3ncccc23)nc2c(C(=O)N[C@H]3COC[C@H]3O)cnn12 [I-1408],0.2 to 1
28,CNc1cc(-c2cn(C(C)C)c3ncccc23)nc2c(C(=O)N[C@H]3CC[C@@]3(C)O)cnn12 [I-1409],0.2 to 1
